How the values were obtained:
Type in all cases: in vivo
[1] = system: ALOMY (Alopecurus myosuroides); experiment: pre-emergence greenhouse test; details: for observed activity in % destruction: pre-emergence, 7.5 g ai/ha
From the text: (§1) For the pre-emergence treatment, directly after sowing the active compounds, which had been suspended or emulsified in water, were applied by means of finely distributed nozzles. The containers were irrigated gently to promote germination and growth and subsequently covered with transparent plastic hoods until plant had rooted. This cover caused uniform germination of the tests plants, unless this was adversely affected by active compounds.
(§2) The respective herbicides A and/or safener were formulated as 10% by weight strength suspension concentrate and introduced to the spray liquor with the amount of solvent system used for applying the active compound. Herbicide B and/or safener were used as commercially available formulations and introduced to the spray liquor with the amount of solvent system used for applying the active compound. In the examples, the solvent used was water.
(§3) The test period extended over 20 days. During this time, the plants were tended, and their response to the treatments with active compound was evaluated.
(§4) In the following experiments, the herbicidal activity for the individual herbicide compounds (solo application) and of the mixture was assessed 8 days after treatment (8 DAT) and/or 20 days after treatment (20 DAT).
(§5) The evaluation for the damage caused by the chemical compositions was carried out using a scale from 0 to 100%, compared to the untreated control plants. Here, 0 means no damage and 100 means complete destruction of the plants.

[2] = system: AMARE (Amaranthus retroflexus); experiment: pre-emergence greenhouse test
From the text: as §1, §2, §3, §4, §5

[3] = system: AMBEL (Ambrosia artemisifolia); experiment: pre-emergence greenhouse test; details: for observed activity in % destruction: pre-emergence, 15 g ai/ha
From the text: as §1, §2, §3, §4, §5

[4] = system: BRAPL (Brachiaria plantaginea); experiment: pre-emergence greenhouse test; details: BRAPL pre-emergence 7.5 g ai/ha
From the text: as §1, §2, §3, §4, §5

[5] = system: COMBE (Commelina benghalensis); experiment: pre-emergence greenhouse test; details: for observed activity in % destruction: pre-emergence
From the text: as §1, §2, §3, §4, §5

[6] = system: ECHCG (Echinochloa crus-galli); experiment: pre-emergence greenhouse test
From the text: as §1, §2, §3, §4, §5

ERBVI = experiment: pre-emergence greenhouse test
From the text: as §1, §2, §3, §4, §5

[7] = system: PANDI (Panicum dichotomiflorum); experiment: pre-emergence greenhouse test; details: PANDI pre-emergence 7.5 g ai/ha
From the text: as §1, §2, §3, §4, §5

[8] = system: PANMI (Panicum milliaceum); experiment: pre-emergence greenhouse test
From the text: as §1, §2, §3, §4, §5

PHBPU (Ipomoea purpurea) = experiment: pre-emergence greenhouse test
From the text: as §1, §2, §3, §4, §5

SETFA (Setaria faberii) = experiment: pre-emergence greenhouse test
From the text: as §1, §2, §3, §4, §5

SETVI (Setaria viridis) = experiment: pre-emergence greenhouse test
From the text: as §1, §2, §3, §4, §5

SOLNI (Solanum nigrum) = experiment: pre-emergence greenhouse test; details: for observed activity in % destruction: pre-emergence, 7.5 g ai/ha
From the text: as §1, §2, §3, §4, §5

[9] = system: ALOMY (Alopecurus myosuroides); experiment: post-emergence greenhouse test
From the text: (§6) For the post-emergence treatment, the test plants were first grown to a height of 3 to 20 cm, depending on the plant habit, and only then treated. Here, the herbicidal compositions were suspended or emulsified in water as distribution medium and sprayed using finely distributing nozzles.
as §2, §3, §4, §5

[10] = system: CHEAL (Chenopodium album); experiment: post-emergence greenhouse test; details: 15 g ai/ha
From the text: as §6, §2, §3, §4, §5

[11] = ALOMY pre-emergence 3.75 g ai/ha
[12] = ALOMY pre-emergence 7.5 g ai/ha
[13] = AMARE pre-emergence 3.75 g ai/ha
[14] = AMARE pre-emergence 7.5 g ai/ha
[15] = COMBE pre-emergence 3.75 g ai/ha
[16] = COMBE pre-emergence 7.5 g ai/ha
[17] = ECHCG pre-emergence 7.5 g ai/ha
[18] = SETVI pre-emergence 3.75 g ai/ha
[19] = SOLNI pre-emergence 7.5 g ai/ha

COCc1cnc(C2=NC(C)(C(C)C)C(=O)N2)c(C(=O)O)c1 (stereo not shown) [imazamox]
55%: observed % destruction 8 DAT [2, 14]
85%: observed % destruction 20 DAT (SETFA (Setaria faberii); SETFA pre-emergence 15 g ai/ha) | observed % destruction 8 DAT (SETVI (Setaria viridis); SETVI pre-emergence 15 g ai/ha) | observed % destruction 20 DAT (SOLNI (Solanum nigrum); SOLNI pre-emergence 15 g ai/ha)
25%: observed activity in % destruction ([9]; 3.75 g ai/ha, 8 DAT)
30%: observed % destruction 8 DAT [1, 12] | observed activity in % destruction ([1]; 8 DAT) | observed % destruction 20 DAT [2, 13] | observed % destruction 20 DAT [5, 15] | observed activity in % destruction ([5]; 3.75 g ai/ha, 20 DAT) | observed % destruction 20 DAT ([8]; PANMI pre-emergence 7.5 g ai/ha) | observed % destruction 20 DAT (SETFA (Setaria faberii); SETFA pre-emergence 3.75 g ai/ha) | observed % destruction 8 DAT (SOLNI (Solanum nigrum); [19]) | observed activity in % destruction (SOLNI (Solanum nigrum); 8 DAT) | observed activity in % destruction ([9]; 3.75 g ai/ha, 20 DAT)
45%: observed % destruction 20 DAT [4]
90%: observed % destruction 20 DAT (SETVI (Setaria viridis); SETVI pre-emergence 7.5 g ai/ha)
10%: observed % destruction 20 DAT [6, 17]
75%: observed % destruction 20 DAT ([5]; COMBE pre-emergence 15 g ai/ha) | observed % destruction 20 DAT ([6]; ECHCG pre-emergence 15 g ai/ha) | observed % destruction 20 DAT [7]
60%: observed % destruction 8 DAT ([6]; ECHCG pre-emergence 15 g ai/ha) | observed % destruction 20 DAT (SETFA (Setaria faberii); SETFA pre-emergence 7.5 g ai/ha)
80%: observed % destruction 20 DAT ([1]; ALOMY pre-emergence 15 g ai/ha) | observed % destruction 20 DAT [2, 14] | observed % destruction 20 DAT ([3]; AMBEL pre-emergence 15 g ai/ha) | observed activity in % destruction ([3]; 20 DAT) | observed % destruction 20 DAT (SOLNI (Solanum nigrum); [19]) | observed activity in % destruction (SOLNI (Solanum nigrum); 20 DAT)
40%: observed % destruction 20 DAT [1, 11] | observed % destruction 20 DAT [1, 12] | observed activity in % destruction ([1]; 20 DAT) | observed % destruction 8 DAT [5, 16] | observed activity in % destruction ([5]; 7.5 g ai/ha, 8 DAT)
65%: observed % destruction 8 DAT ([2]; AMARE pre-emergence 15 g ai/ha)
20%: observed % destruction 8 DAT [1, 11] | observed % destruction 8 DAT [2, 13] | observed % destruction 8 DAT [5, 15] | observed activity in % destruction ([5]; 3.75 g ai/ha, 8 DAT) | observed % destruction 8 DAT [6, 17] | observed % destruction 20 DAT (ERBVI; ERBVI pre-emergence 15 g ai/ha) | observed % destruction 8 DAT [7] | observed % destruction 20 DAT ([8]; PANMI pre-emergence 3.75 g ai/ha) | observed % destruction 20 DAT (PHBPU (Ipomoea purpurea); PHBPU pre-emergence 7.5 g ai/ha) | observed % destruction 20 DAT (SETVI (Setaria viridis); [18]) | observed % destruction 20 DAT (SOLNI (Solanum nigrum); SOLNI pre-emergence 3.75 g ai/ha)
70%: observed % destruction 20 DAT (PHBPU (Ipomoea purpurea); PHBPU pre-emergence 15 g ai/ha)
95%: observed % destruction 20 DAT ([2]; AMARE pre-emergence 15 g ai/ha) | observed % destruction 20 DAT (SETVI (Setaria viridis); SETVI pre-emergence 15 g ai/ha)
35%: observed % destruction 20 DAT [5, 16] | observed activity in % destruction ([5]; 7.5 g ai/ha, 20 DAT) | observed activity in % destruction ([9]; 7.5 g ai/ha, 8 DAT) | observed activity in % destruction ([9]; 7.5 g ai/ha, 20 DAT)
50%: observed % destruction 8 DAT ([1]; ALOMY pre-emergence 15 g ai/ha) | observed % destruction 8 DAT ([3]; AMBEL pre-emergence 15 g ai/ha) | observed activity in % destruction ([3]; 8 DAT) | observed % destruction 8 DAT ([5]; COMBE pre-emergence 15 g ai/ha)
0%: observed % destruction 8 DAT [4] | observed % destruction 20 DAT ([6]; ECHCG pre-emergence 3.75 g ai/ha) | observed % destruction 20 DAT (ERBVI; ERBVI pre-emergence 3.75 g ai/ha) | observed % destruction 20 DAT (ERBVI; ERBVI pre-emergence 7.5 g ai/ha) | observed % destruction 8 DAT (SETVI (Setaria viridis); [18]) | observed activity in % destruction ([10]; 8 DAT) | observed activity in % destruction ([10]; 20 DAT)

— patent US20110015067A1, “Herbicidal Compositions Comprising Pyroxasulfone” (BASF SE, priority 2008, published 2011)
